# In patent publication US10597388B2, “Pyridazinone herbicides” (FMC CORPORATION, priority 2014, dated 2020):
# Assays:
# Format in all cases: in vivo
# [1] = tested on: nutsedge, yellow (yellow nutsedge, Cyperus esculentus); assay: Test C greenhouse herbicide test, pre- and postemergence
# In short: (§1)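 Greenhouse pots; pre-em on seeded loam:sand blend, post-em on 2–18 cm plants (1–4 leaf) in sphagnum peat/vermiculite medium. Formulation: non-phytotoxic solvent + surfactant. Read-out: visual % control (0–100) vs controls at 13–15 d.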
# [2] = tested on: galium (catchweed bedstraw, Galium aparine); assay: as above
# In short: as §1
# [3] = tested on: oilseed rape (Brassica napus); assay: as above
# In short: as §1
# [4] = tested on: velvetleaf (Abutilon theophrasti); assay: as above
# In short: as §1
# kochia (Kochia scoparia) = assay: Test A greenhouse herbicide test, pre- and postemergence
# In short: (§2)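 Visual injury ratings, 0 (no effect) to 100 (complete control), versus untreated plants after roughly 10 d in a greenhouse. Compounds, formulated in a surfactant-containing non-phytotoxic solvent, were sprayed on loam–sand soil after sowing (pre) or on one- to two-leaf plants 2–10 cm tall (post).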
# corn (Zea mays) = assay: as above; details: Postemergence
# In short: as §2
# [5] = tested on: pigweed (Amaranthus retroflexus); assay: as above
# In short: as §2
# [6] = tested on: ryegrass, Italian (Italian ryegrass, Lolium multiflorum); assay: as above
# In short: as §2
# [7] = tested on: wheat (Triticum aestivum); assay: as above; details: Postemergence
# In short: as §2
# [8] = tested on: ragweed (common ragweed, Ambrosia elatior); assay: as above
# In short: as §2
# [9] = tested on: foxtail, giant (giant foxtail, Setaria faberii); assay: as above
# In short: as §2
# [10] = Postemergence, 125 g ai/ha, scale 0 to 100, 0 is no effect, 100 is complete control
# [11] = Postemergence, 250 g ai/ha, scale 0 to 100, 0 no effect, 100 complete control, 13 to 15 d
# [12] = postemergence, 62 g ai/ha, scale 0 to 100, 0 no effect, 100 complete control
# [13] = Postemergence, 125 g ai/ha, 0 to 100 scale where 0 is no effect and 100 is complete control
# [14] = Postemergence, 500 g ai/ha, visual rating after approx. 10 d, 0 to 100 scale (0 no effect, 100 complete control)
# [15] = Preemergence, 125 g ai/ha, 0 to 100 scale where 0 is no effect and 100 is complete control
# [16] = Preemergence, 500 g ai/ha, 0 to 100 scale where 0 is no effect and 100 is complete control
# [17] = 125 g ai/ha, 0 to 100 scale where 0 is no effect and 100 is complete control
# [18] = 500 g ai/ha, visual rating after approx. 10 d, 0 to 100 scale (0 no effect, 100 complete control)
# [19] = Postemergence, 31 g ai/ha, scale 0 to 100 (0 no effect, 100 complete control)
# [20] = Preemergence, 31 g ai/ha, scale 0 to 100, 0 is no effect, 100 is complete control
# [21] = Preemergence, 62 g ai/ha, scale 0 to 100, 0 is no effect, 100 is complete control
# [22] = Preemergence, 125 g ai/ha, scale 0 to 100, 0 is no effect, 100 is complete control
# [23] = Preemergence, 250 g ai/ha, scale 0 to 100 (0 no effect, 100 complete control)
smiles,measurement,setting,value
CC(=O)Oc1c(C#N)nn(C)c(=O)c1-c1c(C)ccc2ccccc12 [Compound 98],"Plant response rating, Nutsedge, Yellow",[1]; [10],50
same,"Plant response rating, Nutsedge, Yellow",[1]; [11],60
same,"Nutsedge, Yellow plant response rating",[1]; [12],15
same,"Plant response rating, Galium",[2]; [10],98
same,"Plant response rating, Galium",[2]; [11],98
same,Galium plant response rating,[2]; [12],95
same,"Plant response rating, Oilseed Rape",[3]; [10],10
same,"Plant response rating, Oilseed Rape",[3]; [11],25
same,Oilseed Rape plant response rating,[3]; [12],0
same,"Plant response rating, Velvetleaf",[4]; [10],75
same,"Plant response rating, Velvetleaf",[4]; [11],100
same,Velvetleaf plant response rating,[4]; [12],70
same,"Plant response rating, Kochia",kochia (Kochia scoparia); [13],30
same,"Plant response rating, Kochia",kochia (Kochia scoparia); [14],60
same,Kochia plant response rating,kochia (Kochia scoparia); [15],20
same,"Plant response rating, Kochia",kochia (Kochia scoparia); [16],40
same,"Plant response rating, Corn",corn (Zea mays); [17],20
same,"Plant response rating, Corn",corn (Zea mays); [18],20
same,"Plant response rating, Pigweed",[5]; [13],100
same,"Plant response rating, Pigweed",[5]; [14],100
same,Pigweed plant response rating,[5]; [15],100
same,"Plant response rating, Pigweed",[5]; [16],100
same,"Plant response rating, Ryegrass, Italian",[6]; [13],90
same,"Plant response rating, Ryegrass, Italian",[6]; [14],100
same,"Ryegrass, Italian plant response rating",[6]; [15],20
same,"Plant response rating, Ryegrass, Italian",[6]; [16],90
same,"Plant response rating, Wheat",[7]; [17],30
same,"Plant response rating, Wheat",[7]; [18],30
same,"Plant response rating, Ragweed",[8]; [13],100
same,"Plant response rating, Ragweed",[8]; [14],100
same,Ragweed plant response rating,[8]; [15],60
same,"Plant response rating, Ragweed",[8]; [16],90
same,"Plant response rating, Foxtail, Giant",[9]; [13],90
same,"Plant response rating, Foxtail, Giant",[9]; [14],100
same,"Foxtail, Giant plant response rating",[9]; [15],90
same,"Plant response rating, Foxtail, Giant",[9]; [16],100
COc1nn(C)c(=O)c(-c2c(C)sc3ccc(Cl)cc23)c1O [Compound 100],"Plant response rating, Nutsedge, Yellow",[1]; [10],20
same,"Plant response rating, Nutsedge, Yellow",[1]; [11],50
same,"Nutsedge, Yellow plant response rating",[1]; [12],25
same,"Plant response rating, Galium",[2]; [10],95
same,"Plant response rating, Galium",[2]; [11],95
same,Galium plant response rating,[2]; [12],95
same,"Plant response rating, Oilseed Rape",[3]; [10],10
same,"Plant response rating, Oilseed Rape",[3]; [11],90
same,Oilseed Rape plant response rating,[3]; [12],60
same,"Plant response rating, Velvetleaf",[4]; [10],40
same,"Plant response rating, Velvetleaf",[4]; [11],65
same,Velvetleaf plant response rating,[4]; [12],50
same,"Plant response rating, Kochia",kochia (Kochia scoparia); [13],70
same,"Plant response rating, Kochia",kochia (Kochia scoparia); [14],100
same,Kochia plant response rating,kochia (Kochia scoparia); [15],30
same,"Plant response rating, Kochia",kochia (Kochia scoparia); [16],70
same,"Plant response rating, Corn",corn (Zea mays); [17],0
same,"Plant response rating, Corn",corn (Zea mays); [18],20
same,"Plant response rating, Pigweed",[5]; [13],80
same,"Plant response rating, Pigweed",[5]; [14],90
same,Pigweed plant response rating,[5]; [15],100
same,"Plant response rating, Pigweed",[5]; [16],100
same,"Plant response rating, Ryegrass, Italian",[6]; [13],90
same,"Plant response rating, Ryegrass, Italian",[6]; [14],100
same,"Ryegrass, Italian plant response rating",[6]; [15],90
same,"Plant response rating, Ryegrass, Italian",[6]; [16],100
same,"Plant response rating, Wheat",[7]; [17],0
same,"Plant response rating, Wheat",[7]; [18],20
same,"Plant response rating, Ragweed",[8]; [13],90
same,"Plant response rating, Ragweed",[8]; [14],90
same,Ragweed plant response rating,[8]; [15],40
same,"Plant response rating, Ragweed",[8]; [16],80
same,"Plant response rating, Foxtail, Giant",[9]; [13],80
same,"Plant response rating, Foxtail, Giant",[9]; [14],80
same,"Foxtail, Giant plant response rating",[9]; [15],70
same,"Plant response rating, Foxtail, Giant",[9]; [16],90
Cc1nn(C)c(=O)c(-c2c(C)sc3ccc(Cl)cc23)c1O [Compound 104],"Plant response rating, Nutsedge, Yellow",[1]; [19],55
same,"Plant response rating, Nutsedge, Yellow",[1]; [10],60
same,"Plant response rating, Nutsedge, Yellow",[1]; [11],75
same,"Plant response rating, Nutsedge, Yellow",[1]; [20],30
same,"Plant response rating, Nutsedge, Yellow",[1]; [21],45
same,"Plant response rating, Nutsedge, Yellow",[1]; [22],75
same,"Nutsedge, Yellow plant response rating",[1]; [23],85
same,"Plant response rating, Galium",[2]; [19],95
same,"Plant response rating, Galium",[2]; [10],98
same,"Plant response rating, Galium",[2]; [11],98
same,"Plant response rating, Galium",[2]; [20],90
same,"Plant response rating, Galium",[2]; [21],85
same,"Plant response rating, Galium",[2]; [22],90
same,Galium plant response rating,[2]; [23],98
same,"Plant response rating, Oilseed Rape",[3]; [19],85
same,"Plant response rating, Oilseed Rape",[3]; [10],95
same,"Plant response rating, Oilseed Rape",[3]; [11],98
same,"Plant response rating, Oilseed Rape",[3]; [20],5
same,"Plant response rating, Oilseed Rape",[3]; [21],30
same,"Plant response rating, Oilseed Rape",[3]; [22],85
same,Oilseed Rape plant response rating,[3]; [23],95
same,"Plant response rating, Velvetleaf",[4]; [19],50
same,"Plant response rating, Velvetleaf",[4]; [10],98
same,"Plant response rating, Velvetleaf",[4]; [11],90
same,"Plant response rating, Velvetleaf",[4]; [20],40
same,"Plant response rating, Velvetleaf",[4]; [21],80
same,"Plant response rating, Velvetleaf",[4]; [22],90
same,Velvetleaf plant response rating,[4]; [23],90
same,"Plant response rating, Kochia",kochia (Kochia scoparia); [13],90
same,"Plant response rating, Kochia",kochia (Kochia scoparia); [14],100
same,Kochia plant response rating,kochia (Kochia scoparia); [15],100
same,"Plant response rating, Kochia",kochia (Kochia scoparia); [16],100
same,"Plant response rating, Corn",corn (Zea mays); [17],0
same,"Plant response rating, Corn",corn (Zea mays); [18],20
same,"Plant response rating, Pigweed",[5]; [13],90
same,"Plant response rating, Pigweed",[5]; [14],90
same,Pigweed plant response rating,[5]; [15],100
same,"Plant response rating, Pigweed",[5]; [16],100
same,"Plant response rating, Ryegrass, Italian",[6]; [13],100
same,"Plant response rating, Ryegrass, Italian",[6]; [14],100
same,"Ryegrass, Italian plant response rating",[6]; [15],100
same,"Plant response rating, Ryegrass, Italian",[6]; [16],100
same,"Plant response rating, Wheat",[7]; [17],20
same,"Plant response rating, Wheat",[7]; [18],20
same,"Plant response rating, Ragweed",[8]; [13],100
same,"Plant response rating, Ragweed",[8]; [14],100
same,Ragweed plant response rating,[8]; [15],90
same,"Plant response rating, Ragweed",[8]; [16],100
same,"Plant response rating, Foxtail, Giant",[9]; [13],80
same,"Plant response rating, Foxtail, Giant",[9]; [14],100
same,"Foxtail, Giant plant response rating",[9]; [15],70
same,"Plant response rating, Foxtail, Giant",[9]; [16],100
